According to the NIST ThermoML archive (doi:10.1021/acs.jced.7b00002):
Numbers after ± are expanded uncertainties.

Assays:
[1] = xn = mol fraction of the nth substance listed; settings: 97.6 kPa, Liquid, x2 = 0; for viscosity: Capillary tube (Ostwald / Ubbelohde) method; for mass density: Vibrating tube method
[2] = 97.6 kPa, Liquid; for viscosity: Capillary tube (Ostwald / Ubbelohde) method; for mass density: Vibrating tube method

CC(=O)N(C)C [N,N-dimethylethanamide] + CCCCCCCC[n+]1ccn(C)c1.[Cl-]
[1]
Settings	mass density [kg/m3]	viscosity [mPa·s]
303.15 K	931.85 ± 2	0.89
308.15 K	927.26 ± 2	0.83
313.15 K	922.66 ± 2	0.78
318.15 K	918.06 ± 2	0.74
323.15 K	913.44 ± 1.9	0.7
328.15 K	908.81 ± 1.9	0.66
333.15 K	904.16 ± 1.9	0.63
338.15 K	899.53 ± 1.9	0.6
343.15 K	894.87 ± 1.9	0.57
348.15 K	890.19 ± 1.9	0.54
353.15 K	885.51 ± 1.9	0.52

CC(=O)N(C)C [N,N-dimethylethanamide]
[2]
Settings	mass density [kg/m3]	viscosity [mPa·s]
303.15 K	931.85 ± 2	0.89
308.15 K	927.26 ± 2	0.83
313.15 K	922.66 ± 2	0.78
318.15 K	918.06 ± 2	0.74
323.15 K	913.44 ± 1.9	0.7
328.15 K	908.81 ± 1.9	0.66
333.15 K	904.16 ± 1.9	0.63
338.15 K	899.53 ± 1.9	0.6
343.15 K	894.87 ± 1.9	0.57
348.15 K	890.19 ± 1.9	0.54
353.15 K	885.51 ± 1.9	0.52

c1ccncc1 [pyridine] + CCCCCCCC[n+]1ccn(C)c1.[Cl-]
[1]
Settings	mass density [kg/m3]	viscosity [mPa·s]
303.15 K	973.09 ± 1.9	0.84
308.15 K	968.06 ± 1.9	0.79
313.15 K	963.02 ± 1.9	0.74
318.15 K	957.97 ± 1.9	0.7
323.15 K	952.9 ± 1.9	0.66
328.15 K	947.82 ± 1.9	0.62
333.15 K	942.72 ± 1.9	0.59
338.15 K	937.6 ± 1.9	0.56
343.15 K	932.46 ± 1.9	0.53
348.15 K	927.3 ± 1.9	0.51
353.15 K	922.12 ± 1.9	0.48

C[S+](C)[O-] [dimethyl sulfoxide]
[2]
Settings	mass density [kg/m3]	viscosity [mPa·s]
303.15 K	1090.29 ± 2.2	1.8
308.15 K	1085.28 ± 2.2	1.66
313.15 K	1080.3 ± 2.2	1.53
318.15 K	1075.31 ± 2.2	1.41
323.15 K	1070.32 ± 2.2	1.3
328.15 K	1065.33 ± 2.1	1.21
333.15 K	1060.34 ± 2.1	1.13
338.15 K	1055.34 ± 2.1	1.06
343.15 K	1050.35 ± 2.1	0.99
348.15 K	1045.34 ± 2.1	0.93
353.15 K	1040.33 ± 2.1	0.88

c1ccncc1 [pyridine]
[2]
Settings	mass density [kg/m3]	viscosity [mPa·s]
303.15 K	973.09 ± 1.9	0.84
308.15 K	968.06 ± 1.9	0.79
313.15 K	963.02 ± 1.9	0.74
318.15 K	957.97 ± 1.9	0.7
323.15 K	952.9 ± 1.9	0.66
328.15 K	947.82 ± 1.9	0.62
333.15 K	942.72 ± 1.9	0.59
338.15 K	937.6 ± 1.9	0.56
343.15 K	932.46 ± 1.9	0.53
348.15 K	927.3 ± 1.9	0.51
353.15 K	922.12 ± 1.9	0.48

CN(C)C=O [dimethylformamide]
[2]
Settings	mass density [kg/m3]	viscosity [mPa·s]
303.15 K	939.18 ± 1.9	0.77
308.15 K	934.41 ± 1.9	0.72
313.15 K	929.64 ± 1.9	0.68
318.15 K	924.86 ± 1.9	0.65
323.15 K	920.07 ± 1.9	0.62
328.15 K	915.26 ± 1.8	0.59
333.15 K	910.44 ± 1.8	0.56
338.15 K	905.6 ± 1.8	0.54
343.15 K	900.74 ± 1.8	0.51
348.15 K	895.87 ± 1.8	0.49
353.15 K	890.98 ± 1.8	0.47

C[S+](C)[O-] [dimethyl sulfoxide] + CCCCCCCC[n+]1ccn(C)c1.[Cl-]
[1]
Settings	mass density [kg/m3]	viscosity [mPa·s]
303.15 K	1090.29 ± 2.2	1.8
308.15 K	1085.28 ± 2.2	1.66
313.15 K	1080.3 ± 2.2	1.53
318.15 K	1075.31 ± 2.2	1.41
323.15 K	1070.32 ± 2.2	1.3
328.15 K	1065.33 ± 2.1	1.21
333.15 K	1060.34 ± 2.1	1.13
338.15 K	1055.34 ± 2.1	1.06
343.15 K	1050.35 ± 2.1	0.99
348.15 K	1045.34 ± 2.1	0.93
353.15 K	1040.33 ± 2.1	0.88

CN(C)C=O [dimethylformamide] + CCCCCCCC[n+]1ccn(C)c1.[Cl-]
[1]
Settings	mass density [kg/m3]	viscosity [mPa·s]
303.15 K	939.18 ± 1.9	0.77
308.15 K	934.41 ± 1.9	0.72
313.15 K	929.64 ± 1.9	0.68
318.15 K	924.86 ± 1.9	0.65
323.15 K	920.07 ± 1.9	0.62
328.15 K	915.26 ± 1.8	0.59
333.15 K	910.44 ± 1.8	0.56
338.15 K	905.6 ± 1.8	0.54
343.15 K	900.74 ± 1.8	0.51
348.15 K	895.87 ± 1.8	0.49
353.15 K	890.98 ± 1.8	0.47

CCCCCCCC[n+]1ccn(C)c1.[Cl-] [1-methyl-3-octylimidazolium chloride]
[2]
Settings	mass density [kg/m3]	viscosity [mPa·s]
303.15 K	1006.2 ± 2.2	7339.7
308.15 K	1003.33 ± 2.1	4272.9
313.15 K	1000.48 ± 2.1	2766.9
318.15 K	997.64 ± 2.1	1788.6
323.15 K	994.82 ± 2.1	1198.7
328.15 K	992 ± 2.1	828.3
333.15 K	989.17 ± 2.1	588.69
338.15 K	986.38 ± 2.1	426.28
343.15 K	983.63 ± 2.1	316.66
348.15 K	980.88 ± 2.1	237.14
353.15 K	978.13 ± 2.1	181.41
